Legend:
[1] = Solubility of compound in acetonitrile/water; assay type: physicochemical
[2] = Stability of compound assessed as compound degradation under dark condition measured after 20 days by 1H-NMR analysis; assay type: physicochemical; details: time 20 day; read-out: Drug degradation

solubility [1]: Soluble
degraded at 480 h [2]: 6%
Structure (SMILES): C=CCCCCCCCCOC(=O)/C=C/c1cccc(C(C)(C)C)c1O
